Data reported in patent publication US6413911B1, “Herbicidal sulfonylureas, their preparation and use” (BASF Aktiengesellschaft, priority 1992, dated 2002).

Legend:
[1] = test system: maize; test: greenhouse test, post-emergence selectivity in crop plant maize; assay type: in vivo, Zea mays; settings: 0.06 kg/ha of a.s. post-emergence
From the text: (§1) The cultivation containers used were plastic flowerpots containing loamy sand with about 3.0% humus as a substrate. The seeds of the test plants were sown separately according to species. For the purpose of post-emergence treatment, the test plants were first raised, depending on growth form, to a growth height of from 4 to 15 cm and only then treated with the active compounds suspended or emulsified in water. To do this, the test plants were either directly sown and raised in the same containers or they were first raised separately as seed plants and transplanted into the test containers a few days before the treatment. The application rate for post-emergence treatment was 0.06 kg/ha of a.s. (active substance). The plants were kept in a species-specific manner at 10-25° C. or 20-35° C. The test period extended over 2 to 4 weeks. During this time the plants were tended and their reaction to the individual treatments was assessed. Assessment was carried out on a scale of from 0 to 100. 100 here means no germination of the plants or complete destruction of at least the above-ground parts and 0 means no damage or normal course of growth. The plants used in the greenhouse tests were composed of the following species: [table]

[2] = test system: Solanum nigrum; test: greenhouse test, post-emergence herbicidal activity; assay type: in vivo; settings: scale 0-100, Table I
From the text: as §1, with “Comparison of the herbicidal activity of the exemplary compound No. 1.03 with the known comparison compound B on post-emergence application of 0.0313 or 0.0156 kg/ha of a.s. respectively” for “The plants used”, “greenhouse.” for “greenhouse tests were composed of the following species: [table]”

[3] = test system: Amaranthus retroflexus; test: as above; assay type: in vivo; settings: scale 0-100, Table I
From the text: as §1, with “Comparison of the herbicidal activity of the exemplary compound No. 1.03 with the known comparison compound B on post-emergence application of 0.0313 or 0.0156 kg/ha of a.s. respectively” for “The plants used”, “greenhouse.” for “greenhouse tests were composed of the following species: [table]”

[4] = test system: Polygonum persicaria; test: as above; assay type: in vivo; settings: scale 0-100, Table I
From the text: as §1, with “Comparison of the herbicidal activity of the exemplary compound No. 1.03 with the known comparison compound B on post-emergence application of 0.0313 or 0.0156 kg/ha of a.s. respectively” for “The plants used”, “greenhouse.” for “greenhouse tests were composed of the following species: [table]”

[5] = test system: Veronica spp.; test: as above; assay type: in vivo; settings: scale 0-100, Table I
From the text: as §1, with “Comparison of the herbicidal activity of the exemplary compound No. 1.03 with the known comparison compound B on post-emergence application of 0.0313 or 0.0156 kg/ha of a.s. respectively” for “The plants used”, “greenhouse.” for “greenhouse tests were composed of the following species: [table]”

[6] = test system: Galium aparine; test: as above; assay type: in vivo
From the text: as §1, with “Comparison of the herbicidal activity of the exemplary compound No. 1.03 with the known comparison compound B on post-emergence application of 0.0313 or 0.0156 kg/ha of a.s. respectively” for “The plants used”, “greenhouse. Comparison” for “greenhouse tests were composed”, “herbicidal activity of the exemplary compound No. 3.01 with the known comparison compound H on post-emergence application of 0.063 or 0.0313 kg/ha of a.s. respectively in the greenhouse.” for “following species: [table]”

[7] = test system: Sinapis alba; test: as above; assay type: in vivo
From the text: as §1, with “Comparison of the herbicidal activity of the exemplary compound No. 1.03 with the known comparison compound B on post-emergence application of 0.0313 or 0.0156 kg/ha of a.s. respectively” for “The plants used”, “greenhouse. Comparison” for “greenhouse tests were composed”, “herbicidal activity of the exemplary compound No. 3.01 with the known comparison compound H on post-emergence application of 0.063 or 0.0313 kg/ha of a.s. respectively in the greenhouse.” for “following species: [table]”

[8] = test system: broad-leaved undesired plants; test: greenhouse test, post-emergence control of broad-leaved undesired plants; assay type: in vivo, Abutilon theophrasti; Sinapis alba; settings: 0.06 kg/ha of a.s. post-emergence
From the text: as §1

[9] = test system: Ipoinea spp.; test: greenhouse test, post-emergence herbicidal activity; assay type: in vivo; settings: scale 0-100, Table II
From the text: as §1, with “Comparison of the herbicidal activity of the exemplary compound No. 3.01 with the known comparison compound H on post-emergence application of 0.063 or 0.0313 kg/ha of a.s. respectively” for “The plants used”, “greenhouse.” for “greenhouse tests were composed of the following species: [table]”

[10] = test system: Alopecurus myosuroides; test: as above; assay type: in vivo; settings: scale 0-100, Table II
From the text: as §1, with “Comparison of the herbicidal activity of the exemplary compound No. 3.01 with the known comparison compound H on post-emergence application of 0.063 or 0.0313 kg/ha of a.s. respectively” for “The plants used”, “greenhouse.” for “greenhouse tests were composed of the following species: [table]”

[11] = test system: Triticum aestivum; test: greenhouse test, post-emergence damage to crop plant; assay type: in vivo; settings: scale 0-100, Table II
From the text: as §1, with “Comparison of the herbicidal activity of the exemplary compound No. 3.01 with the known comparison compound H on post-emergence application of 0.063 or 0.0313 kg/ha of a.s. respectively” for “The plants used”, “greenhouse.” for “greenhouse tests were composed of the following species: [table]”

[12] = 0.0156 kg/ha of a.s., scale 0-100, Table I
[13] = 0.0313 kg/ha of a.s., scale 0-100, Table I
[14] = 0.0313 kg/ha of a.s., scale 0-100, Table II
[15] = 0.063 kg/ha of a.s., scale 0-100, Table II

COC(=O)c1ccccc1S(=O)(=O)NC(=O)Nc1nc(OC)nc(C(F)(F)Cl)n1 [Example 1.03]
selectivity in the exemplary crop plant maize [1]: outstanding selectivity
Damage [%] ([2]; 0.0156 kg/ha of a.s.): 90%
Damage [%] ([2]; 0.0313 kg/ha of a.s.): 90%
Damage [%] ([3]; 0.0156 kg/ha of a.s.): 100%
Damage [%] ([3]; 0.0313 kg/ha of a.s.): 100%
Damage [%] ([4]; 0.0156 kg/ha of a.s.): 80%
Damage [%] ([4]; 0.0313 kg/ha of a.s.): 80%
Damage [%] ([5]; 0.0156 kg/ha of a.s.): 75%
Damage [%] ([5]; 0.0313 kg/ha of a.s.): 85%
Damage [%] [6, 12]: 75%
Damage [%] [6, 13]: 95%
Damage [%] [7, 12]: 90%
Damage [%] [7, 13]: 90%
control of broad-leaved undesired plants [8]: very well controlled

COc1nc(NC(=O)NS(=O)(=O)c2ccccc2C(F)(F)F)nc(C(F)F)n1 [Example 3.01]
Damage [%] [6, 14]: 95%
Damage [%] [6, 15]: 95%
Damage [%] [7, 14]: 98%
Damage [%] [7, 15]: 98%
Damage [%] ([9]; 0.0313 kg/ha of a.s.): 90%
Damage [%] ([9]; 0.063 kg/ha of a.s.): 98%
Damage [%] ([10]; 0.0313 kg/ha of a.s.): 98%
Damage [%] ([10]; 0.063 kg/ha of a.s.): 98%
Damage [%] ([11]; 0.0313 kg/ha of a.s.): 0%
Damage [%] ([11]; 0.063 kg/ha of a.s.): 0%
